# Data reported in patent publication US20240182549A1, “PEPTIDES AND ANTIBODY FUSIONS THAT BIND TO SARS-COV-2 AND METHODS OF USING SAME” (priority 2021, published 2024).
# “Also recorded” adds a separate entry of the source. Ends that are not written are not given here.
# What was measured:
# SARS-CoV-2 RBD (RBD-Fc) = SARS-CoV-2 RBD (RBD-Fc) (Severe acute respiratory syndrome coronavirus 2, UniProt P0DTC2)
# [1] = tested on: SARS-CoV-2 S protein pseudotyped virus-like particles; type: cell-based
# [2] = tested on: SARS-CoV-2 strain 2019 n-CoV/USA_WA1/2020; type: cell-based
# [3] = tested on: B.1.1.529 (Omicron) S protein RBD; type: binding, SARS-CoV-2
Substance,binding of peptide-phage to RBD (in words) (SARS-CoV-2 RBD (RBD-Fc)),neutralization potency compared to parent IgG (in words) [1],improvement in 15033 neutralization efficiency (in words) [2],potency compared to 15033 parental (in words) [2],EC50 of phage-displayed peptide (SARS-CoV-2 RBD (RBD-Fc)),binding to omicron RBD (in words) [3]
p16 (DFDFAENWMEQLKVML; not fully specified),no measurable interaction,marked improvement in neutralization potency,most marked improvement,,,
p96 (TAYECFQFPEWSCESE; not fully specified; cysteine pairing not given here),no measurable interaction,,,no apparent improvement in potency; also recorded: decreased potency,,
p102 (ECWEWSYQLQEWSPCP; not fully specified; cysteine pairing not given here),bound,marked improvement in neutralization potency,second best,,0.04 A268 nm absorbance units,equivalent binding efficiency
